Values quoted from earlier work in publication PMC2552397 (Journal of medicinal chemistry, 2008).

How the values were obtained:
[1] = molecular target: T1, GGPPS (Homo sapiens, UniProt O95749); settings: in words
T1 sequence (O95749 1-300): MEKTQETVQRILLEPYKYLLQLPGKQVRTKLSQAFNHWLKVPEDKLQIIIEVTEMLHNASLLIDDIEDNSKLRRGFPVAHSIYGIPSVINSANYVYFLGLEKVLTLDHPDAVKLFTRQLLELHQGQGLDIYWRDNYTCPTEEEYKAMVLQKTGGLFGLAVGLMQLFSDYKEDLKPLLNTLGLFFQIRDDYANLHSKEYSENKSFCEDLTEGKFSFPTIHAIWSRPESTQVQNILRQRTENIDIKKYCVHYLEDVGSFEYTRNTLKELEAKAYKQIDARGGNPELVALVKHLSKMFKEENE

[2] = tested on: K562 tumor cell line; settings: in words

Compound	activity against GGPPS [1]	activity against a K562 tumor cell line [2]
CCCCCCCCCC(O)(P(=O)(O)O)P(=O)(O)O [compound 4]	quite potent activity	–
CC(C)=CCC/C(C)=C/CC(C/C=C(\C)CCC=C(C)C)(P(=O)(O)O)P(=O)(O)O [compound 5, digeranyl methylene bisphosphonate]	potent activity	potent activity
